Measurements from ChEMBL document CHEMBL1126611, “Modulation of leukocyte genetic expression by novel purine nucleoside analogues. A new approach to antitumor and antiviral agents” (1993).

Assays:
Rattus norvegicus = assay: Compound at a dose 100 mg/kg was administered to rat and Percent survivors after coronavirus infection in suckling rats.; format: functional
Mus musculus [1] = assay: Mean survival time Forest virus infectedof mice that died; survivors lived through 21 days after intraperitoneal administration of 25 mg/kg; format: functional
Mus musculus [2] = species: Mus musculus; assay: Activity against San Angelo virus infection in mice; format: functional
Mus musculus [3] = species: Mus musculus; assay: Mean survival time of Forest virus infected mice that died; survivors lived through 21 days; format: functional
Mus musculus [4] = assay: Mean survival time of San Angelo virus infected mice that died; survivors lived through 21 days after intraperitoneal administration of 50 mg/kg; format: functional
Mus musculus [5] = assay: Mean survival time of Forest virus infected mice that died; survivors lived through 21 days after intraperitoneal administration of 50 mg/kg; format: functional
Mus musculus [6] = assay: Activity against Forest virus infection in mice, ip; format: functional
Mus musculus [7] = assay: Mean survival time of Forest virus infected mice that died; survivors lived through 21 days after intraperitoneal administration of 100 mg/kg; format: functional
Mus musculus [8] = species: Mus musculus; assay: Mean survival time mice that died; survivors lived through 21 days; format: functional
Mus musculus [9] = assay: Activity against Forest virus infection in mice after intraperitoneal administration of 25 mg/kg; format: functional
Mus musculus [10] = assay: Activity against San Angelo virus infection in mice after intraperitoneal administration of 50 mg/kg; format: functional
Mus musculus [11] = assay: Activity against San Angelo virus infection in mice after intraperitoneal administration of 25 mg/kg; format: functional
Mus musculus [12] = assay: Mean survival time of San Angelo virus infected mice that died; survivors lived through 21 days after intraperitoneal administration of 10 mg/kg; format: functional
Mus musculus [13] = assay: Activity against Forest virus infection in mice after intraperitoneal administration of 50 mg/kg; format: functional
Mus musculus [14] = assay: Activity against San Angelo virus infection in mice after intraperitoneal administration of 10 mg/kg; format: functional
Mus musculus [15] = assay: Mean survival time of San Angelo virus infected mice that died; survivors lived through 21 days after intraperitoneal administration of 25 mg/kg; format: functional
Mus musculus [16] = species: Mus musculus; assay: Mean survival time of San Angelo virus infected mice that died; survivors lived through 21 days; format: functional
Mus musculus [17] = assay: Activity against Forest virus infection in mice after intraperitoneal administration of 100 mg/kg; format: functional
Mus musculus [18] = species: Mus musculus; assay: Activity against Forest virus infection in mice; format: functional
Mus musculus [19] = assay: Mean survival time of Forest virus infected mice that died; survivors lived through 21 days after oral administration of 200 mg/kg; format: functional
Mus musculus [20] = assay: Mean survival time of San Angelo virus infected mice that died; survivors lived through 21 days after intraperitoneal administration of 100 mg/kg; format: functional
Mus musculus [21] = assay: Activity against Forest virus infection in mice after oral administration of 200 mg/kg; format: functional
Mus musculus [22] = species: Mus musculus; assay: Inhibition of […] murine melanoma artificial metastasis in lungs of C57BL/6j mice expressed as average of B16-F10 colonies in lungs from 6 or 7 mice on 17th day (no. of mice = 6); format: functional, Lung
Mus musculus [23] = assay: Activity against San Angelo virus infection in mice after intraperitoneal administration of 100 mg/kg; format: functional
Mus musculus [24] = species: Mus musculus; assay: Inhibition of […] murine melanoma artificial metastasis in lungs of C57BL/6j mice expressed as average of B16-F10 colonies in lungs from 6 or 7 mice on 18-19th days (no. of mice = 7); format: functional, Lung
Mus musculus [25] = assay: Activity against Forest virus infection in mice after intraperitoneal administration of 200 mg/kg; format: functional
Mus musculus [26] = assay: Mean survival time of Forest virus infected mice that died; survivors lived through 21 days after intraperitoneal administration of 200 mg/kg; format: functional

## Nc1nc(=O)c2sc(=O)n([C@@H]3O[C@H](CO)[C@@H](O)[C@H]3O)c2[nH]1 [ISATORIBINE]
Rattus norvegicus
  Survivors: 83%

## Nc1nc(O)c2cc(Cl)n(C3O[C@H](CO)[C@@H](O)[C@H]3O)c2n1 (some centres undefined)
Mus musculus [1]
  Mean survival: 6 days
Mus musculus [2]
  Survivors: 18%
Rattus norvegicus
  Survivors: 92%
Mus musculus [3]
  Mean survival: 6.5 days
Mus musculus [4]
  Mean survival: >21 days
Mus musculus [5]
  Mean survival: >21 days
Mus musculus [6]
  Survivors: 8%
Mus musculus [7]
  Mean survival: 7 days
Mus musculus [8]
  Mean survival: 7 days
Mus musculus [9]
  Survivors: 92%
Mus musculus [10]
  Survivors: 100%
Mus musculus [11]
  Survivors: 100%
Mus musculus [12]
  Mean survival: 8 days
Mus musculus [13]
  Survivors: 100%
Mus musculus [14]
  Survivors: 58%
Mus musculus [15]
  Mean survival: >21 days
Mus musculus [16]
  Mean survival: 7.2 days
Mus musculus [17]
  Survivors: 92%

## Nc1nc2c(ccn2[C@@H]2O[C@H](CO)[C@@H](O)[C@H]2O)c(=O)[nH]1
Mus musculus [18]
  Survivors: 8%
Mus musculus [2]
  Survivors: 33%
Mus musculus [19]
  Mean survival: 8 days
Mus musculus [3]
  Mean survival: 7.4 days
Mus musculus [4]
  Mean survival: >21 days
Mus musculus [5]
  Mean survival: 6 days
Mus musculus [7]
  Mean survival: 6.5 days
Mus musculus [20]
  Mean survival: >21 days
Mus musculus [10]
  Survivors: 100%
Mus musculus [21]
  Survivors: 83%
Mus musculus [11]
  Survivors: 92%
Mus musculus [22]
  Mean: 0.14
Mus musculus [13]
  Survivors: 83%
Mus musculus [23]
  Survivors: 100%
Mus musculus [15]
  Mean survival: 9 days
Mus musculus [16]
  Mean survival: 7.9 days
Mus musculus [17]
  Survivors: 83%
Mus musculus [24]
  Mean: 0.17

## Cn1c(=O)n(C2O[C@H](CO)[C@@H](O)[C@H]2O)c2nc(N)nc(O)c21 (some centres undefined)
Rattus norvegicus
  Survivors: 75%

## N#Cc1cn(C2O[C@H](CO)[C@@H](O)[C@H]2O)c2nc(N)nc(O)c12 (some centres undefined)
Mus musculus [18]
  Survivors: 8%
Mus musculus [3]
  Mean survival: 6 days
Mus musculus [7]
  Mean survival: 8.5 days
Mus musculus [17]
  Survivors: 50%

## Nc1nc(O)c2c(C(=O)O)cn(C3O[C@H](CO)[C@@H](O)[C@H]3O)c2n1 (some centres undefined)
Mus musculus [18]
  Survivors: 17%
Mus musculus [25]
  Survivors: 33%
Mus musculus [3]
  Mean survival: 6.8 days
Mus musculus [26]
  Mean survival: 6 days
Mus musculus [7]
  Mean survival: 8.1 days
Mus musculus [17]
  Survivors: 8%

## Cn1c(=S)n(C2O[C@H](CO)[C@@H](O)[C@H]2O)c2nc(N)nc(O)c21 (some centres undefined)
Rattus norvegicus
  Survivors: 58%
